Measured values: patent publication US5789431A, “Naphthoquinone antitumor compound and method” (The University of North Carolina at Chapel Hill, priority 1996, dated 1998)
Where two headings read alike, the source gives them in different places.

What was measured:
U 251 = assay: in vitro CNS cancer cell growth inhibition (NCI screen)
LXFL 529 = assay: in vitro non-small cell lung cancer cell growth inhibition (NCI screen)
HT 29 = assay: in vitro colon cancer cell growth inhibition (NCI screen)
LOX1MVI = assay: in vitro melanoma cell growth inhibition (NCI screen)
SR = assay: in vitro leukemia cell growth inhibition (NCI screen)
DLD-1 = assay: in vitro colon cancer cell growth inhibition (NCI screen)
SNB-78 = assay: in vitro CNS cancer cell growth inhibition (NCI screen)
OVCAR-8 = assay: in vitro ovarian cancer cell growth inhibition (NCI screen)
UACC-62 = assay: in vitro melanoma cell growth inhibition (NCI screen)
CCRF-CEM [1] = assay: in vitro leukemia cell growth inhibition (NCI screen)
SF-268 = assay: in vitro CNS cancer cell growth inhibition (NCI screen)
M19-MEL = assay: in vitro melanoma cell growth inhibition (NCI screen)
786-0 = assay: in vitro renal cancer cell growth inhibition (NCI screen)
HCT-15 = assay: in vitro colon cancer cell growth inhibition (NCI screen)
HL-60(TB) = assay: in vitro leukemia cell growth inhibition (NCI screen)
K-562 [2] = assay: as above
KM 20L2 = assay: in vitro colon cancer cell growth inhibition (NCI screen)
human tumor cell lines = format: cell-based; settings: Homo sapiens; non-small cell lung, CNS, melanoma, colon, leukemia, small cell lung, and renal cancer cell lines; read-out: logGI50 values (range over cell lines) (converted)
MOLT-4 [3] = assay: in vitro leukemia cell growth inhibition (NCI screen)
NCI-H460 = assay: in vitro non-small cell lung cancer cell growth inhibition (NCI screen)
HCT-116 = assay: in vitro colon cancer cell growth inhibition (NCI screen)
NCI-H522 = assay: in vitro non-small cell lung cancer cell growth inhibition (NCI screen)
SF-539 = assay: in vitro CNS cancer cell growth inhibition (NCI screen)
HOP-92 = assay: in vitro non-small cell lung cancer cell growth inhibition (NCI screen)
M14 = assay: in vitro melanoma cell growth inhibition (NCI screen)
SK-MEL-28 = assay: as above
OVCAR-3 = assay: in vitro ovarian cancer cell growth inhibition (NCI screen)
SN12C = assay: in vitro renal cancer cell growth inhibition (NCI screen)
UO-31 = assay: as above
RXF-393 = assay: as above
NCI-H23 = assay: in vitro non-small cell lung cancer cell growth inhibition (NCI screen)
UACC-257 = assay: in vitro melanoma cell growth inhibition (NCI screen)
SNB-75 = assay: in vitro CNS cancer cell growth inhibition (NCI screen)
SK-MEL-5 = assay: in vitro melanoma cell growth inhibition (NCI screen)
XF-498 = assay: in vitro CNS cancer cell growth inhibition (NCI screen)
TK-10 = assay: in vitro renal cancer cell growth inhibition (NCI screen)
HOP-18 = assay: in vitro non-small cell lung cancer cell growth inhibition (NCI screen)
MALME-3M = assay: in vitro melanoma cell growth inhibition (NCI screen)
SW 620 = assay: in vitro colon cancer cell growth inhibition (NCI screen)
NCI-H266 = assay: in vitro non-small cell lung cancer cell growth inhibition (NCI screen)
CAKI-1 = assay: in vitro renal cancer cell growth inhibition (NCI screen)
K-562 [4] = settings: human, k-562 cells
MDA-MB-435 = assay: in vitro breast cancer cell growth inhibition (NCI screen)
MOLT-4 [5] = settings: human, molt-4 cells
COLO-205 = assay: in vitro colon cancer cell growth inhibition (NCI screen)
CCRF-CEM [6] = settings: human, ccrf-cem cells
MDA-N = assay: in vitro breast cancer cell growth inhibition (NCI screen)
PC-3 = assay: in vitro prostate cancer cell growth inhibition (NCI screen)
T-47D = assay: in vitro breast cancer cell growth inhibition (NCI screen)
RPMI-8226 = assay: in vitro leukemia cell growth inhibition (NCI screen)

Compound	cytotoxicity log GI50 (LXFL 529)	cytotoxicity log GI50 (HT 29)	cytotoxicity log GI50 (LOX1MVI)	cytotoxicity log GI50 (DLD-1)	cytotoxicity log GI50 (OVCAR-8)	cytotoxicity log GI50 (UACC-62)	cytotoxicity log GI50 (CCRF-CEM [1])	cytotoxicity log GI50 (SF-268)	cytotoxicity log GI50 (M19-MEL)	cytotoxicity log GI50 (786-0)	cytotoxicity log GI50 (HCT-15)	cytotoxicity log GI50 (HL-60(TB))	cytotoxicity log GI50 (K-562 [2])	cytotoxicity log GI50 (KM 20L2)	cytotoxicity log GI50 (HCT-116)	cytotoxicity log GI50 (SF-539)	cytotoxicity log GI50 (M14)	cytotoxicity log GI50 (UACC-257)	cytotoxicity log GI50 (SNB-75)	cytotoxicity log GI50 (SW 620)	further results
Cc1nc2c(n1Cc1ccc(Cl)cc1)C(=O)c1ccccc1C2=O [Compound 20]	-5.26 M	-5.39 M	-5.69 M	-5.38 M	-5.05 M	-5.47 M	-5.33 M	-5.29 M	-4.93 M	-5.25 M	-5.97 M	-5.36 M	-5.69 M	-5.09 M	-5.59 M	-5.60 M					cytotoxicity log GI50 (U 251): -5.46 M; cytotoxicity log GI50 (SR): -5.88 M; cytotoxicity log GI50 (SNB-78): -5.03 M; GI50 (human tumor cell lines): 1 to 10 µM; cytotoxicity log GI50 (MOLT-4 [3]): -5.50 M; cytotoxicity log GI50 (NCI-H460): -5.76 M; cytotoxicity log GI50 (NCI-H522): -5.26 M
CC(=O)NC1=C(NCC(C)C)C(=O)c2ccccc2C1=O [Compound 31]	-4.79 M		-4.81 M	-4.72 M		-4.74 M	-5.14 M	-4.69 M	-4.73 M	-4.84 M	-4.75 M	-5.56 M	-4.81 M	-4.67 M	-4.69 M	-4.76 M	-4.74 M	-4.73 M	-4.77 M	-4.68 M	cytotoxicity log GI50 (HOP-92): -4.85 M; cytotoxicity log GI50 (SK-MEL-28): -4.77 M; cytotoxicity log GI50 (OVCAR-3): -4.78 M; cytotoxicity log GI50 (SN12C): -4.77 M; cytotoxicity log GI50 (UO-31): -4.74 M; cytotoxicity log GI50 (RXF-393): -4.90 M; cytotoxicity log GI50 (NCI-H23): -4.70 M; cytotoxicity log GI50 (SK-MEL-5): -4.70 M; cytotoxicity log GI50 (XF-498): -4.85 M; cytotoxicity log GI50 (TK-10): -4.68 M; cytotoxicity log GI50 (HOP-18): -4.89 M; cytotoxicity log GI50 (MALME-3M): -4.72 M; cytotoxicity log GI50 (NCI-H266): -4.80 M; cytotoxicity log GI50 (CAKI-1): -4.78 M
CC(=O)NC1=C(NCCCl)C(=O)c2ccccc2C1=O [Compound 43]		-4.58 M			-4.70 M	-4.70 M									-4.69 M		-4.89 M	-4.82 M	-4.61 M	-4.60 M	cytotoxicity log GI50 (K-562 [4]): -4.55 M; cytotoxicity log GI50 (MDA-MB-435): -4.78 M; cytotoxicity log GI50 (NCI-H23): -4.58 M; cytotoxicity log GI50 (SK-MEL-5): -4.77 M; cytotoxicity log GI50 (MOLT-4 [5]): -4.60 M; cytotoxicity log GI50 (COLO-205): -4.55 M; cytotoxicity log GI50 (CCRF-CEM [6]): -4.72 M; cytotoxicity log GI50 (MDA-N): -4.67 M; cytotoxicity log GI50 (MALME-3M): -4.86 M; cytotoxicity log GI50 (PC-3): -4.65 M; cytotoxicity log GI50 (NCI-H522): -4.69 M; cytotoxicity log GI50 (T-47D): -4.60 M
CC(=O)NC1=C(NC(C)(C)C)C(=O)c2ccccc2C1=O [Compound 32]	-4.82 M		-4.78 M	-4.80 M		-4.86 M	-5.63 M		-4.81 M	-5.47 M	-4.76 M	-5.65 M	-5.14 M			-4.80 M	-4.77 M	-4.80 M	-4.86 M	-4.85 M	cytotoxicity log GI50 (OVCAR-3): -4.81 M; cytotoxicity log GI50 (RPMI-8226): -4.93 M; cytotoxicity log GI50 (XF-498): -4.95 M; cytotoxicity log GI50 (HOP-18): -4.83 M; cytotoxicity log GI50 (MOLT-4 [3]): -5.19 M; cytotoxicity log GI50 (NCI-H266): -4.84 M; cytotoxicity log GI50 (CAKI-1): -4.79 M
